For one test, the target named is Major prion protein (Homo sapiens, UniProt P04156). The test is classed as functional, cell-based.
Test [1] addresses Disintegrin and metalloproteinase domain-containing protein 17 (Homo sapiens, UniProt P78536). Put plainly: inhibition of ADAM17 substrate cleavage – biochemical, quenched FRET substrate, counter-screen for ADAM10 exosite inhibitor project, dose response (AID 743253).
The nature of test [2]: potency of ADAM10 substrate cleavage blockers – biochemical, QFRET, dose response (AID 743254).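 Further: ADAM10 enzyme with the DM2 quenched FRET peptide as substrate; EDANS fluorescence gain as the protease cuts the substrate; inhibitor potency against ADAM10 proteolytic activity.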
Test [3] has as its target NAD-dependent protein deacylase sirtuin-5, mitochondrial (Homo sapiens, UniProt Q9NXA8). Put plainly: sirtuin-5 deacylation blockers, concentration series – biochemical, fluorescence imaging, cherry-pick, set 5, dose response (AID 720591).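 Further: desuccinylation of succinyl peptide AMC substrate read as fluorescence after trypsin release; potency of inhibitors that lower fluorescence and may act on trypsin instead.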
The nature of test [4]: P. falciparum Dd2 growth inhibitors, dose response, SYBR Green, cherry-picked samples (AID 1159567). The format is functional, cell-based.
A further test addresses Paired box protein Pax-8 (Homo sapiens, UniProt Q06710). Put plainly: PAX8 transcriptional activity inhibition in RMG-I – RMG-I cells, luciferase, cherry-pick, dose response (AID 687027).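 Further: luciferase reporter driven by Pax8 target thyroperoxidase promoter measured by SteadyGlo luminescence.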 The format is functional, cell-based.
A short description of test [5]: OVCAR8 cell viability loss – plate reader, dry powder samples, PAX8 project, dose response (AID 743197). The test is classed as functional, cell-based. The following applies: OVCAR-8.
Test [6] in a line: toxicity to human hepatoma HepG2 cells – cell-based, cherry-picked samples, cytotoxicity control, dose response (AID 1159577). The format is functional.
The nature of test [7]: OVCAR-3 cell viability loss – plate reader, dry powder samples, PAX8 inhibitor project, dose response (AID 743044). The format is functional, cell-based.
The target in test [8] is COUP transcription factor 2 (Homo sapiens, UniProt P24468). Put plainly: Luminescence-based cell-based high throughput dose response assay to identify inhibitors of COUP-TFII (NR2F2). The format is functional.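 Further: HEK293 cells transiently cotransfected with COUP-TFII expression vector and reporter; luciferase reporter luminescence driven by COUP-TFII from the pX2-168 reporter plasmid.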
Test [9] can be described thus: Dd2 parasite growth inhibition in erythrocytes – SYBR Green, dry powder samples, set 9, dose response (AID 1159568). The test is classed as functional, cell-based.

The values that follow come from ChEMBL document CHEMBL1201862, “PubChem BioAssay data set” (2004).

Molecules are shown by their SMILES. Active and inactive are the calls of the source. Bounds are passed on as bounds.

One may read the IC50 as the concentration that inhibits the measured activity by half. `Brc1ccc2nc(-c3ccco3)c(Cc3ccccc3)n2c1`: the IC50 was 6.67 µM (active) on Major prion protein and 113 µM (inactive) in “cells”.

As to `Oc1ccc(C[C@H]2CNC(=S)N2CC2CCCN2C[C@H](Cc2ccccc2)N2C[C@H](Cc3ccc(O)cc3)N(CC3CCCCC3)C2=S)cc1` (stereo partly drawn), the IC50 was > 69.5 µM (inactive) in test [1] and 7.86 µM (active) in test [2].

By AC50 is commonly meant the midpoint of the concentration-response curve, whichever way the signal moves. Regarding `CCCCC[C@@H](C)N1C[C@H](COCc2ccccc2)Oc2cc(N3CCC[C@@H]3CO)ccc2S1(=O)=O`, in test [3], the AC50 is > 30 µM (inactive).

On to `O=C(C1CCCC1)N1CC[C@@H]2[C@H](CO)Nc3ccc(C4=CCCCC4)cc3[C@@H]21`, for which the half-maximal activity concentration (AC50) in test [4] was 5.7 µM (active); at Paired box protein Pax-8 it was 12.7 µM (active); in test [5], 33.1 µM (active); in test [6], > 39 µM (inactive); in test [7] it was 25.5 µM (active).

Regarding `COc1ccc(C(=O)C2CCN(c3ncnc4sccc34)CC2)cc1`, the IC50 in test [8] was 1.77 µM (active).

`COc1ccc2c3c([nH]c2c1)[C@H](CO)N(C(C)=O)CC31CN(Cc2ccccc2Cl)C1`: the AC50 in [9] is 3 µM (active).

Take `Cc1ccc(S(=O)(=O)N2CC[C@H]3[C@H](CO)Nc4ccc(-c5cccc(C(=O)N(C)C)c5)cc4[C@H]32)cc1`: the AC50 in test [9] is 3.07 µM (active).
